Measurements taken from patent US20040142981A1, “Antibacterial benzoic acid derivatives” (priority 2002, published 2004).
Converted amounts (≈) assume the structure as drawn.

How the values were obtained:
SAUR 9218 = assay: MIC by standard agar dilution method; type: cell-based; conditions: Mueller Hinton agar, incubated overnight at 35° C., lowest concentration that inhibits visible growth
Experimental: MIC Test Method The in vitro MICs of test compounds were determined by a standard agar dilution method. A stock drug solution of each analog was prepared in the preferred solvent, usually DMSO:H2O (1:3). Serial 2-fold dilutions of each sample are made using 1.0 ml aliquots of sterile distilled water. To each 1.0 ml aliquot of drug was added 9 ml of molten Mueller Hinton agar medium. The drug-supplemented agar was mixed, poured into 15×100 mm petri dishes, and allowed to solidify and dry prior to inoculation. Vials of each of the test organisms are maintained frozen in the vapor phase of a liquid nitrogen freezer. Test cultures are grown overnight at 35° C. on the medium appropriate for the organism. Colonies are harvested with a sterile swab, and cell suspensions are prepared in Trypticase Soy broth (TSB) to equal the turbidity of a 0.5 McFarland standard. A 1:20 dilution of each suspension was made in TSB. The plates containing the drug supplemented agar are inoculated with a 0.001 ml drop of the cell suspension using a Steers replicator, yielding approximately 10^4 to 10^5 cells per spot. The plates are incubated overnight at 35° C. Following incubation the Minimum Inhibitory Concentration (MIC μg/ml), the lowest concentration of drug that inhibits visible growth of the organism, was read and recorded.

Row | Compound | MIC (SAUR 9218) [mg/L] | melting point [°C]
1 | CC(C)(C)C(=O)OCn1nnc(-c2cc(Br)ccc2NC(=O)c2cccc(S(=O)(=O)N3CCOCC3)c2)n1 [Example 21, [5-(5-bromo-2-{[3-(morpholin-4-ylsulfonyl)benzoyl]amino}phenyl)-2H-tetraazol-2-yl]methyl pivalate] | > 64 | 210 to 212
2 | O=C(Nc1ccc(Br)cc1-c1nnn[nH]1)c1cccc(S(=O)(=O)N2CCOCC2)c1 [Example 17, N-[4-bromo-2-(1H-tetraazol-5-yl)phenyl]-3-(morpholin-4-ylsulfonyl)benzamide] | 64 (≈ 130 µM) | 228 to 230
3 | N#Cc1ccc(NC(=O)c2cc3cccc(S(=O)(=O)c4ccccc4)c3[nH]2)c(-c2nnn[nH]2)c1 [Example 25, N-[4-cyano-2-(1H-tetraazol-5-yl)phenyl]-7-(phenylsulfonyl)-1H-indole-2-carboxamide] | 0.125 (≈ 0.266 µM) | 293 to 295
4 | N#Cc1ccc(NC(=O)c2ccc(S(=O)(=O)N3CCc4cc(Cl)ccc43)cc2)c(-c2n[nH]c(=S)o2)c1 [Example 23, 4-[(5-chloro-2,3-dihydro-1H-indol-1-yl)sulfonyl]-N-[4-cyano-2-(5-thioxo-4,5-dihydro-1,3,4-oxadiazol-2-yl)phenyl]benzamide] | 8 (≈ 14.9 µM) | 225 to 229
5 | N#Cc1ccc(NC(=O)c2cccc(S(=O)(=O)N3CCOCC3)c2)c(-c2n[nH]c(=O)o2)c1 [Example 18, N-[4-cyano-2-(5-oxo-4,5-dihydro-1,3,4-oxadiazol-2-yl)phenyl]-3-(morpholin-4-ylsulfonyl)benzamide] | > 128 | 283 to 285
6 | N#Cc1ccc(NC(=O)c2ccc(S(=O)(=O)N3CCc4cc(Cl)ccc43)cc2)c(-c2n[nH]c(=O)o2)c1 [Example 22, 4-[(5-chloro-2,3-dihydro-1H-indol-1-yl)sulfonyl]-N-[4-cyano-2-(5-oxo-4,5-dihydro-1,3,4-oxadiazol-2-yl)phenyl]benzamide] | 32 (≈ 61.3 µM) | 262 to 264
7 | O=C(Nc1ccc(Br)cc1-c1noc(=O)[nH]1)c1cccc(S(=O)(=O)N2CCOCC2)c1 [Example 19, N-[4-bromo-2-(5-oxo-4,5-dihydro-1,2,4-oxadiazol-3-yl)phenyl]-3-(morpholin-4-ylsulfonyl)benzamide] | 128 (≈ 251 µM) | 220 to 223
8 | O=C(Nc1ccc(Br)cc1-c1noc(=O)[nH]1)c1cccc(Oc2ccccc2)c1 [Example 16, N-[4-Bromo-2-(5-oxo-4,5-dihydro-1,2,4-oxadiazol-3-yl)phenyl]-3-phenoxybenzamide] | 16 (≈ 35.4 µM) | 185 to 187
9 | N#Cc1ccc(NC(=O)c2cccc(S(=O)(=O)N3CCOCC3)c2)c(-c2nnn[nH]2)c1 [Example 20, N-[4-cyano-2-(1H-tetraazol-5-yl)phenyl]-3-(morpholin-4-ylsulfonyl)benzamide] | 64 (≈ 146 µM) | 230 to 232
10 | CN(c1ccc(Cl)cc1)S(=O)(=O)c1ccc(C(=O)Nc2ccc(Br)cc2-c2noc(=O)[nH]2)cc1 [Example 6, N-[4-Bromo-2-(5-oxo-4,5-dihydro-1,2,4-oxadiazol-3-yl)phenyl]-4-{[(4-chlorophenyl)(methyl)amino]sulfonyl}benzamide] | 16 (≈ 28.4 µM) | 
11 | N#Cc1ccc(NC(=O)c2cccc(S(=O)(=O)N3CCc4cc(Cl)ccc43)c2)c(C(=O)Nc2nccs2)c1 [Example 26, 2-({3-[(5-Chloro-2,3-dihydro-1H-indol-1-yl)sulfonyl]benzoyl}amino)-5-cyano-N-(1,3-thiazol-2-yl)benzamide] | 8 (≈ 14.2 µM) | 
12 | CN(c1ccc(Cl)cc1)S(=O)(=O)c1ccc(C(=O)Nc2ccc(Br)cc2-c2nnn[nH]2)cc1 [Example 5, N-[4-Bromo-2-(1H-tetraazol-5-yl)phenyl]-4-{[(4-chlorophenyl)(methyl)amino]sulfonyl}benzamide] | 16 (≈ 29.2 µM) | 
